Values after ≈ are worked out from the molar mass of the structure shown.
Tests used:
[1] = tested on: Cryptococcus neoformans; assay: Antifungal activity against Cryptococcus neoformans H99 assessed as reduction in fungal growth incubated for 72 hrs by broth microdilution method; format: functional
[2] = tested on: Candida parapsilosis; assay: Antifungal activity against Candida parapsilosis ATCC 22019 assessed as reduction in fungal growth incubated for 72 hrs by broth microdilution method; format: functional; conditions: Lodderomyces parapsilosis
[3] = tested on: Nakaseomyces glabratus; assay: Antifungal activity against Candida glabrata 537 assessed as reduction in fungal growth incubated for 72 hrs by broth microdilution method; format: functional
[4] = tested on: Candida tropicalis; assay: Antifungal activity against Candida tropicalis 2718 assessed as reduction in fungal growth incubated for 72 hrs by broth microdilution method; format: functional
[5] = tested on: Candida albicans; assay: Antifungal activity against Candida albicans SC5314 assessed as reduction in fungal growth incubated for 72 hrs by broth microdilution method; format: functional
[6] = tested on: Pichia kudriavzevii; assay: Antifungal activity against Pichia kudriavzevii 4946 assessed as reduction in fungal growth incubated for 72 hrs by broth microdilution method; format: functional
[7] = tested on: [Candida] auris; assay: Antifungal activity against Candida auris D12 assessed as reduction in fungal growth incubated for 72 hrs by broth microdilution method; format: functional; conditions: Candidozyma auris
[8] = tested on: Cryptococcus neoformans; assay: Potency index, ratio of deferasirox MIC to test compound for antifungal activity against Cryptococcus neoformans H99 incubated for 72 hrs by broth microdilution method; format: functional
[9] = Metabolic stability in mouse liver microsomes assessed as half life; format: ADME, Microsome
[10] = Metabolic stability in mouse liver microsomes assessed as intrinsic clearance; format: ADME, Microsome; conditions: read-out: CLH
[11] = Metabolic stability in mouse liver microsomes assessed as elimination rate constant; format: ADME, Microsome

Cc1nccn1CCCNC(=O)c1ccc(-n2nc(-c3ccccc3O)nc2-c2ccccc2O)cc1
MIC [1]: 8 µg/mL (≈ 16.2 µM)

O=C(NCCCO)c1ccc(-n2nc(-c3ccccc3O)nc2-c2ccccc2O)cc1
MIC [1]: 2 µg/mL (≈ 4.65 µM)

O=C(NCCc1ccccn1)c1ccc(-n2nc(-c3ccccc3O)nc2-c2ccccc2O)cc1
MIC [2]: > 64 µg/mL
MIC [3]: < 0.125 µg/mL
MIC [4]: 64 µg/mL (≈ 134 µM)
MIC [1]: 0.5 µg/mL (≈ 1.05 µM)
MIC [5]: 32 µg/mL (≈ 67 µM)
MIC [6]: 4 µg/mL (≈ 8.38 µM)
MIC [7]: > 64 µg/mL

O=C(NCc1ccccc1)c1ccc(-n2nc(-c3ccccc3O)nc2-c2ccccc2O)cc1
MIC [1]: 4 µg/mL (≈ 8.65 µM)

CN1CCCC(CNC(=O)c2ccc(-n3nc(-c4ccccc4O)nc3-c3ccccc3O)cc2)C1 (stereo not given)
MIC [2]: 64 µg/mL (≈ 132 µM)
MIC [3]: < 0.125 µg/mL
MIC [4]: 32 µg/mL (≈ 66.2 µM)
MIC [1]: 0.25 µg/mL (≈ 0.517 µM)
MIC [5]: 32 µg/mL (≈ 66.2 µM)
MIC [6]: 16 µg/mL (≈ 33.1 µM)
MIC [7]: > 64 µg/mL

O=C(c1ccc(-n2nc(-c3ccccc3O)nc2-c2ccccc2O)cc1)N1CCOCC1
MIC [1]: 4 µg/mL (≈ 9.04 µM)

O=C(NC1CS(=O)(=O)C1)c1ccc(-n2nc(-c3ccccc3O)nc2-c2ccccc2O)cc1
MIC [1]: 1 µg/mL (≈ 2.1 µM)

COCCNC(=O)c1ccc(-n2nc(-c3ccccc3O)nc2-c2ccccc2O)cc1
MIC [2]: > 64 µg/mL
MIC [3]: < 0.125 µg/mL
MIC [4]: 4 µg/mL (≈ 9.29 µM)
MIC [1]: 0.25 µg/mL (≈ 0.581 µM)
MIC [5]: 8 µg/mL (≈ 18.6 µM)
MIC [6]: 1 µg/mL (≈ 2.32 µM)
MIC [7]: > 64 µg/mL

CC(C)(O)CCNC(=O)c1ccc(-n2nc(-c3ccccc3O)nc2-c2ccccc2O)cc1
MIC [2]: > 64 µg/mL
Ratio [8]: 2
MIC [3]: < 0.125 µg/mL
MIC [4]: 4 µg/mL (≈ 8.72 µM)
MIC [1]: 1 µg/mL (≈ 2.18 µM)
MIC [5]: 16 µg/mL (≈ 34.9 µM)
MIC [6]: 4 µg/mL (≈ 8.72 µM)
MIC [7]: > 64 µg/mL

O=C(NC1CCS(=O)(=O)C1)c1cccc(-n2nc(-c3ccccc3O)nc2-c2ccccc2O)c1 (stereo not given)
MIC [1]: 4 µg/mL (≈ 8.15 µM)

NC(=O)c1ccc(-n2nc(-c3ccccc3O)nc2-c2ccccc2O)cc1
MIC [1]: 4 µg/mL (≈ 10.7 µM)

O=C(NCCCN1CCOCC1)c1ccc(-n2nc(-c3ccccc3O)nc2-c2ccccc2O)cc1
MIC [1]: 1 µg/mL (≈ 2 µM)

O=C(NCCCn1ccnc1)c1ccc(-n2nc(-c3ccccc3O)nc2-c2ccccc2O)cc1
MIC [1]: 8 µg/mL (≈ 16.6 µM)

O=C(N[C@H]1CCOC1)c1ccc(-n2nc(-c3ccccc3O)nc2-c2ccccc2O)cc1
MIC [1]: 4 µg/mL (≈ 9.04 µM)

O=C(NCc1ncccn1)c1ccc(-n2nc(-c3ccccc3O)nc2-c2ccccc2O)cc1
MIC [1]: 4 µg/mL (≈ 8.61 µM)

O=C(NCCN1CCCCC1)c1ccc(-n2nc(-c3ccccc3O)nc2-c2ccccc2O)cc1
MIC [1]: 1 µg/mL (≈ 2.07 µM)

O=C(NCCN1CCOCC1)c1ccc(-n2nc(-c3ccccc3O)nc2-c2ccccc2O)cc1
MIC [2]: 64 µg/mL (≈ 132 µM)
MIC [3]: < 0.125 µg/mL
MIC [4]: 4 µg/mL (≈ 8.24 µM)
MIC [1]: 0.5 µg/mL (≈ 1.03 µM)
MIC [5]: 32 µg/mL (≈ 65.9 µM)
MIC [6]: 8 µg/mL (≈ 16.5 µM)
MIC [7]: > 64 µg/mL

O=C(NCCN1CCOCC1)c1cccc(-n2nc(-c3ccccc3O)nc2-c2ccccc2O)c1
MIC [1]: 1 µg/mL (≈ 2.06 µM)

O=C(NCCO)c1ccc(-n2nc(-c3ccccc3O)nc2-c2ccccc2O)cc1
MIC [1]: 4 µg/mL (≈ 9.61 µM)

O=C(NCc1cccnc1)c1ccc(-n2nc(-c3ccccc3O)nc2-c2ccccc2O)cc1
MIC [1]: 8 µg/mL (≈ 17.3 µM)

Cc1ncc2n1-c1ccc(Cl)cc1C(c1ccccc1F)=NC2 [MIDAZOLAM]
half-life [9]: 4.67 min
microsomal CLint [10]: 742 µL/min/mg
k el [11]: 0.00247 s⁻¹

COC(=O)CCNC(=O)c1ccc(-n2nc(-c3ccccc3O)nc2-c2ccccc2O)cc1
MIC [2]: > 64 µg/mL
Ratio [8]: 4
MIC [3]: < 0.125 µg/mL
MIC [4]: 0.125 µg/mL (≈ 0.273 µM)
MIC [1]: 0.5 µg/mL (≈ 1.09 µM)
MIC [5]: > 64 µg/mL
MIC [6]: 4 µg/mL (≈ 8.72 µM)
MIC [7]: > 64 µg/mL

O=C(O)c1cccc(-n2nc(-c3ccccc3O)nc2-c2ccccc2O)c1
MIC [1]: 4 µg/mL (≈ 10.7 µM)

CCCNC(=O)c1ccc(-n2nc(-c3ccccc3O)nc2-c2ccccc2O)cc1
MIC [1]: 4 µg/mL (≈ 9.65 µM)

O=C(NCc1ccccn1)c1ccc(-n2nc(-c3ccccc3O)nc2-c2ccccc2O)cc1
MIC [1]: 8 µg/mL (≈ 17.3 µM)

O=C(NNc1ccccc1)c1ccc(-n2nc(-c3ccccc3O)nc2-c2ccccc2O)cc1
MIC [1]: 2 µg/mL (≈ 4.32 µM)

CCNC(=O)c1ccc(-n2nc(-c3ccccc3O)nc2-c2ccccc2O)cc1
MIC [1]: 1 µg/mL (≈ 2.5 µM)

O=C(NN1CCOCC1)c1ccc(-n2nc(-c3ccccc3O)nc2-c2ccccc2O)cc1
MIC [1]: 2 µg/mL (≈ 4.37 µM)

O=C(c1ccc(-n2nc(-c3ccccc3O)nc2-c2ccccc2O)cc1)N1CCC(O)CC1
MIC [1]: 4 µg/mL (≈ 8.76 µM)

O=C(N[C@@H]1CCOC1)c1ccc(-n2nc(-c3ccccc3O)nc2-c2ccccc2O)cc1
MIC [1]: 4 µg/mL (≈ 9.04 µM)
